Measured values as given in ChEMBL document CHEMBL1201862, “PubChem BioAssay data set” (2004).
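Compound exposure: 48 hours, 5 concentrations, 96-well plates. At the GI50, growth is halved.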 Active and inactive are the calls of the source. Rule as the data show it: active = GI50 up to about 1.1 µM and inactive = higher.

Key:
Assay in all cases: DTP human tumour cell line panel, 48 h
OVCAR-8 = tested on: OVCAR-8
SNB-75 = tested on: SNB-75
786-0 = tested on: 786-0
OVCAR-5 = tested on: OVCAR-5
CAKI-1 = tested on: CAKI-1
OVCAR-4 = tested on: OVCAR-4
M14 = tested on: M14
T47D = tested on: T47D
UACC-257 = tested on: UACC-257
OVCAR-3 = tested on: OVCAR-3
NCI/ADR-RES = tested on: NCI/ADR-RES
UO-31 = tested on: UO-31
MDA-N = tested on: MDA-N
MCF7 = tested on: MCF7
HOP-92 = tested on: HOP-92
CCRF-CEM = tested on: CCRF-CEM
BT-549 = tested on: BT-549
MDA-MB-231 = tested on: MDA-MB-231
XF498 = tested on: XF498

Compound	GI50 (OVCAR-8)	GI50 (SNB-75)	GI50 (786-0)	GI50 (OVCAR-5)	GI50 (CAKI-1)	GI50 (OVCAR-4)	GI50 (M14)	GI50 (T47D)	GI50 (UACC-257)	GI50 (OVCAR-3)	GI50 (NCI/ADR-RES)	GI50 (UO-31)	GI50 (MDA-N)	GI50 (MCF7)	GI50 (HOP-92)	GI50 (CCRF-CEM)	GI50 (BT-549)	GI50 (MDA-MB-231)	GI50 (XF498)
Cc1ccc(S(=O)ON2CCC(C(=O)O)(c3ccccc3)CC2)cc1 (stereo not given)	> 100 µM (inactive)	> 100 µM (inactive)	0.0773 µM (active)	> 100 µM (inactive)	> 100 µM (inactive)	> 100 µM (inactive)	> 100 µM (inactive)	> 100 µM (inactive)	> 100 µM (inactive)	> 100 µM (inactive)	> 100 µM (inactive)	> 100 µM (inactive)	> 100 µM (inactive)	> 100 µM (inactive)	45.5 µM (inactive)	> 100 µM (inactive)	> 100 µM (inactive)	> 100 µM (inactive)	
COc1cccc(/C=C2\C(=O)N(C(=O)c3ccc(NC(C)=O)cc3)N=C2C)c1	> 100 µM (inactive)	> 100 µM (inactive)	> 100 µM (inactive)	> 100 µM (inactive)	> 100 µM (inactive)	> 100 µM (inactive)	> 100 µM (inactive)		> 100 µM (inactive)	> 100 µM (inactive)		> 100 µM (inactive)				> 100 µM (inactive)			> 100 µM (inactive)
COC(=O)C(/C(=N\O)C(=O)Nc1cccc(Cl)c1C)c1cnc2ccccc2n1 (stereo not given)	> 100 µM (inactive)	> 100 µM (inactive)	> 100 µM (inactive)	> 100 µM (inactive)	> 100 µM (inactive)	> 100 µM (inactive)	> 100 µM (inactive)	> 100 µM (inactive)	> 100 µM (inactive)	> 100 µM (inactive)	> 100 µM (inactive)	> 100 µM (inactive)	> 100 µM (inactive)	> 100 µM (inactive)	> 100 µM (inactive)	> 100 µM (inactive)	> 100 µM (inactive)	> 100 µM (inactive)	
CCN(CC)C1Oc2cc3c(cc2C(c2cc(OC)c(OC)c(OC)c2)C1C)OCO3 (stereo not given)	1.39 µM (inactive)	4.25 µM (inactive)	1.33 µM (inactive)	2 µM (inactive)	1.85 µM (inactive)	16.1 µM (inactive)	0.64 µM (active)	9.35 µM (inactive)	2.88 µM (inactive)	0.387 µM (active)	0.219 µM (active)	2.56 µM (inactive)	0.0836 µM (active)	0.435 µM (active)	0.676 µM (active)	0.406 µM (active)	7.1 µM (inactive)	3.15 µM (inactive)	
Cc1cccc(C)c1/N=N/c1ccc(O)c(CN(C)C)c1	> 100 µM (inactive)	75.3 µM (inactive)	43.9 µM (inactive)	28.3 µM (inactive)	79.4 µM (inactive)	47.9 µM (inactive)	24.7 µM (inactive)	23.6 µM (inactive)	32.7 µM (inactive)	45.3 µM (inactive)	41.2 µM (inactive)	15.6 µM (inactive)	50.8 µM (inactive)	89.1 µM (inactive)	3.21 µM (inactive)	34.8 µM (inactive)	56.5 µM (inactive)	> 100 µM (inactive)	
N#CC1=C2SCCN2C(=O)C(C#N)C12CCCCC2 (stereo not given)	> 100 µM (inactive)	> 100 µM (inactive)	> 100 µM (inactive)	> 100 µM (inactive)	> 100 µM (inactive)	> 100 µM (inactive)	> 100 µM (inactive)	> 100 µM (inactive)	> 100 µM (inactive)	> 100 µM (inactive)	> 100 µM (inactive)	> 100 µM (inactive)	> 100 µM (inactive)	> 100 µM (inactive)	> 100 µM (inactive)	> 100 µM (inactive)	> 100 µM (inactive)	> 100 µM (inactive)	
COc1ccc(Cc2nc3cc([N+](=O)[O-])ccc3n2C[C@@H]2CCCN3CCCCC23)cc1 (stereo not given in full)	45.7 µM (inactive)	40.7 µM (inactive)	18.6 µM (inactive)	29.3 µM (inactive)	19.3 µM (inactive)	18.7 µM (inactive)	14.2 µM (inactive)	33.1 µM (inactive)	15.8 µM (inactive)	20.9 µM (inactive)	25.2 µM (inactive)	8.3 µM (inactive)	17.7 µM (inactive)	27.2 µM (inactive)	12.8 µM (inactive)	11.2 µM (inactive)	19.7 µM (inactive)	19.3 µM (inactive)	
C=C1C(=O)OC2CC1C(O)C/C(C)=C/CC/C(C)=C/C(O)CC2C (stereo not given)	1.89 µM (inactive)	3.43 µM (inactive)	1.53 µM (inactive)	4.97 µM (inactive)	2.75 µM (inactive)	2.45 µM (inactive)	2.51 µM (inactive)	0.824 µM (active)	2.4 µM (inactive)	2.7 µM (inactive)	2 µM (inactive)	2.33 µM (inactive)	1.19 µM (inactive)	2.06 µM (inactive)	1.26 µM (inactive)	0.203 µM (active)	2.31 µM (inactive)	3.52 µM (inactive)	
CCC1(C)C=Cc2c(cc(O)c3c(=O)c4ccccc4n(C)c23)O1 (stereo not given)	> 10 µM (inactive)	> 10 µM (inactive)	> 10 µM (inactive)	> 10 µM (inactive)	3.26 µM (inactive)	> 10 µM (inactive)	> 10 µM (inactive)	> 10 µM (inactive)	> 10 µM (inactive)	> 10 µM (inactive)	> 10 µM (inactive)	> 10 µM (inactive)	> 10 µM (inactive)	> 10 µM (inactive)	> 10 µM (inactive)	> 10 µM (inactive)	> 10 µM (inactive)	> 10 µM (inactive)	
CC(=O)c1ccc2c3c1[C@@H]1O[C@@H]1c1cccc(c1-3)[C@@H]1O[C@H]21	3.94 µM (inactive)	13.5 µM (inactive)	5.6 µM (inactive)	17.7 µM (inactive)	4.72 µM (inactive)	13.6 µM (inactive)	6.85 µM (inactive)	6.76 µM (inactive)	16.9 µM (inactive)	13.5 µM (inactive)	13.7 µM (inactive)	6.84 µM (inactive)	13.5 µM (inactive)	4 µM (inactive)	13.3 µM (inactive)	2.86 µM (inactive)	15.1 µM (inactive)	17.7 µM (inactive)	
O=C1C=CC(=O)c2c1ccc1c3ccccc3n(CCCCCn3c4ccccc4c4ccc5c(c43)C(=O)C=CC5=O)c21	17.7 µM (inactive)	14.9 µM (inactive)	6.87 µM (inactive)	> 49.5 µM (inactive)	6.98 µM (inactive)	> 10 µM (inactive)	20.1 µM (inactive)	4.81 µM (inactive)	16.3 µM (inactive)	17.9 µM (inactive)	25.6 µM (inactive)	7.87 µM (inactive)	20.3 µM (inactive)	19.7 µM (inactive)	16.5 µM (inactive)	0.454 µM (active)	32.4 µM (inactive)	21.2 µM (inactive)	
O=C1CCCCCCCCCCC1CN1CCCCC1 (stereo not given)	> 100 µM (inactive)	39.1 µM (inactive)	> 100 µM (inactive)	89.7 µM (inactive)		> 100 µM (inactive)	> 10 µM (inactive)		70.6 µM (inactive)	> 100 µM (inactive)		39 µM (inactive)				66.8 µM (inactive)			89.5 µM (inactive)
CC(=O)Oc1cc(Cl)c(OC(C)=O)c2c(OC(C)=O)c(C)c(O[Si](C)(C)C(C)(C)C)cc12	2.52 µM (inactive)		14.9 µM (inactive)		16 µM (inactive)	13.2 µM (inactive)	5.7 µM (inactive)		3.23 µM (inactive)	15.6 µM (inactive)		13.5 µM (inactive)			7.52 µM (inactive)	2.54 µM (inactive)			17.5 µM (inactive)
CC(C)N(Cc1ccccc1)S(=O)(=O)c1nc(C(C)(C)C)n[nH]1	> 100 µM (inactive)	> 100 µM (inactive)	> 100 µM (inactive)	> 100 µM (inactive)	> 100 µM (inactive)	> 100 µM (inactive)	> 100 µM (inactive)	92 µM (inactive)	44.9 µM (inactive)	> 100 µM (inactive)	> 100 µM (inactive)	> 100 µM (inactive)	> 100 µM (inactive)	> 100 µM (inactive)	> 100 µM (inactive)	> 100 µM (inactive)	> 100 µM (inactive)	> 100 µM (inactive)	
Oc1ccc(/C=C/c2cccc(/C=C/c3ccc(O)c(O)c3)n2)cc1O	6.81 µM (inactive)	6.01 µM (inactive)	10.7 µM (inactive)	9.95 µM (inactive)	13.8 µM (inactive)	6.04 µM (inactive)	5.58 µM (inactive)	3.4 µM (inactive)	13.9 µM (inactive)	4.05 µM (inactive)	5.48 µM (inactive)	3.85 µM (inactive)	7.53 µM (inactive)	10.2 µM (inactive)	11.2 µM (inactive)	2.75 µM (inactive)	10.9 µM (inactive)	25.5 µM (inactive)	
C/C(=N\O)C(CN(C)C)C(c1ccccc1)c1c(O)c2ccccc2oc1=O (stereo not given)	> 100 µM (inactive)	> 100 µM (inactive)	> 100 µM (inactive)	> 100 µM (inactive)	> 100 µM (inactive)	> 100 µM (inactive)	> 100 µM (inactive)		> 100 µM (inactive)			> 100 µM (inactive)			34.9 µM (inactive)	> 100 µM (inactive)			> 100 µM (inactive)
O=C(O)CSc1ccc(N=C=S)cc1	71.4 µM (inactive)	> 100 µM (inactive)	82.6 µM (inactive)	> 100 µM (inactive)	> 100 µM (inactive)	> 100 µM (inactive)	86.1 µM (inactive)	72.4 µM (inactive)	29.5 µM (inactive)	94 µM (inactive)	> 100 µM (inactive)	> 100 µM (inactive)	54.1 µM (inactive)	56 µM (inactive)	> 100 µM (inactive)	12.6 µM (inactive)	56.2 µM (inactive)	84.1 µM (inactive)	
